How the values were obtained:
Experiment in all cases: biochemical
[1] = target: SARS-CoV nsp14 (Severe acute respiratory syndrome coronavirus, UniProt P0C6X7); details: for IC50: SARS-Cov nap14 IC50; for inhibition at 50 µM: read-out: % of inhibition at 50 μM, SARs-Cov nsp 14
[2] = target: vaccinia virus capping enzyme (D1-D12) (Vaccinia virus, UniProt P04298); details: read-out: % of inhibition at 50 μM, Vaccinia virus D1-D12
[3] = target: human RNA N7-MTase (hRNMT) (Homo sapiens, UniProt O43148); format: biochemical; details: for inhibition at 50 µM: read-out: % of inhibition at 50 μM, hRNMT
human RNA N7-MTase (hRNMT), sequence (O43148 whole entry): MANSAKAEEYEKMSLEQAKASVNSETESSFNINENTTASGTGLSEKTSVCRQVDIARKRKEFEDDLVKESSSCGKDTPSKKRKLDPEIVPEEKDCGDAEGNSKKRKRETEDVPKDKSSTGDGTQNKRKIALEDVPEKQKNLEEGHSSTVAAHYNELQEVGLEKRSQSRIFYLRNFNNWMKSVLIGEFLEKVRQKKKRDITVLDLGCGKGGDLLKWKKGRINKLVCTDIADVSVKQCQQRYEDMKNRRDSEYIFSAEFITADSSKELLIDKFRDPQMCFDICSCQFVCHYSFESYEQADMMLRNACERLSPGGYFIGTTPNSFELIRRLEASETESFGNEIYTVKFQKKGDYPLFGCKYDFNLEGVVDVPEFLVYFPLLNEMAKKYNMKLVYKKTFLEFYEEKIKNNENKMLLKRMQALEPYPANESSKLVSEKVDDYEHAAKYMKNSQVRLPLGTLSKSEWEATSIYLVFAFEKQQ

Work on `CC1=CSC(=C2C(=O)CCC3=C2C(c2ccccc2Cl)C(C#N)=C(N)O3)N1c1ccccc1` (stereo not shown) [Compound 15, 2-Amino-4-(2-chlorophenyl)-5-(4-methyl-3-phenylthiazol-2(3H)-ylidene)-6-oxo-5,6,7,8-tetrahydro-4H-chromene-3-carbonitrile] yielded an IC50 [1] of 22.6 ± 3.58 µM, an inhibition at 50 µM [1] of 89.2 ± 5.83% and an inhibition at 50 µM [2] of 90.4 ± 5.68%. The “% of inhibition at 50 μM, hRNMT” value [3] was “high inhibitions”, the IC50 [3] was 4.91 ± 2.34 µM and the inhibition at 50 µM [3] was 87.3 ± 6.42%.
For `N#CC1=C(N)OC2=C(c3sc(N)c(C#N)c3CC2)C1c1ccccc1` (stereo not shown) [Compound 6a, 2,7-Diamino-9-phenyl-5,9-dihydro-4H-thieno[2,3-f]chromene-3,8-dicarbonitrile], the IC50 [1] was 26.4 ± 3.57 µM, the inhibition at 50 µM [1] was 68.2 ± 4.53% and the inhibition at 50 µM [2] was 79.3 ± 5.37%. The “% of inhibition at 50 μM, hRNMT” value [3] was “high inhibitions”, the IC50 [3] was 36.5 ± 6.27 µM and the inhibition at 50 µM [3] was 80.3 ± 3.74%.
For `CCOC(=O)c1c(N)sc2c1CCC1=C2C(c2ccc(OC)cc2)C(C#N)=C(N)O1` (stereo not shown) [Compound 6f, Ethyl 2,7-diamino-8-cyano-9-(4-methoxyphenyl)-5,9-dihydro-4H-thieno[2,3-f]chromene-3-carboxylate], the IC50 [1] was 36.4 ± 4.51 µM, the inhibition at 50 µM [1] was 58.3 ± 3.65% and the inhibition at 50 µM [2] was 44.8 ± 5.08%. For the same compound, the IC50 [3] was 1.26 ± 0.58 µM and the inhibition at 50 µM [3] was 62.5 ± 5.84%.
Compound `O=C1CCc2c(sc(=S)n2-c2ccccc2)C1` [Compound 18, 3-Phenyl-2-thioxo-2,3,4,5-tetrahydrobenzo[d]thiazol-6(7H)-one] has an IC50 [1] of 53.3 ± 5.62 µM, an inhibition at 50 µM [1] of 56.4 ± 5.73% and an inhibition at 50 µM [2] of 63.7 ± 7.08%. The IC50 [3] was 26.5 ± 6.28 µM and the inhibition at 50 µM [3] was 65.5 ± 4.8%.
`N#CC1=C(N)OC2=C(c3sc(=S)n(-c4ccccc4)c3CC2)C1c1ccc(Cl)cc1` (stereo not shown) [Compound 23b, 7-Amino-9-(4-chlorophenyl)-3-phenyl-2-thioxo-3,4,5,9-tetrahydro-2H-chromeno[6,5-d]thiazole-8-carbonitrile] gave an IC50 [1] of 0.35 ± 0.15 µM, an inhibition at 50 µM [1] of 94.5 ± 6.83% and an inhibition at 50 µM [2] of 96.3 ± 8.92%. The “% of inhibition at 50 μM, hRNMT” value [3] was “high inhibitions”, the IC50 [3] was under 0.05 µM and the inhibition at 50 µM [3] was 96.4 ± 7.24%.
In the case of `COc1ccc(C2C(C#N)=C(N)OC3=C2c2sc(N)c(C#N)c2CC3)cc1` (stereo not shown) [Compound 6c, 2,7-Diamino-9-(4-methoxyphenyl)-5,9-dihydro-4H-thieno[2,3-f]chromene-3,8-dicarbonitrile], the IC50 [1] is reported as 0.45 ± 0.19 µM, the inhibition at 50 µM [1] is reported as 88.2 ± 4.26% and the inhibition at 50 µM [2] is reported as 92.2 ± 5.22%. The “% of inhibition at 50 μM, hRNMT” value [3] was “high inhibitions”, the IC50 [3] was under 0.05 µM and the inhibition at 50 µM [3] was 92.2 ± 5.22%.
Work on `CCOC1C(C#N)=C(N)OC2=C1c1sc(=S)n(-c3ccccc3)c1CC2` (stereo not shown) [Compound 20a, 7-Amino-9-ethoxy-3-phenyl-2-thioxo-3,4,5,9-tetrahydro-2H-chromeno[6,5-d]thiazole-8-carbonitrile] yielded an IC50 [1] of 42.4 ± 5.63 µM, an inhibition at 50 µM [1] of 49.2 ± 6.73% and an inhibition at 50 µM [2] of 53.5 ± 8.25%. For the same compound, the IC50 [3] was 58.3 ± 4.95 µM and the inhibition at 50 µM [3] was 70.4 ± 5.9%.
`Nc1ncnc2c1ncn2[C@@H]1O[C@H](C[C@@H](N)CC[C@H](N)C(=O)O)[C@@H](O)[C@H]1O` [Sinefungin, reference compound] gave an inhibition at 50 µM [1] of 98.36 ± 0.23% and an IC50 [3] of under 0.05 µM.
`CCOC(=O)C1=C(N)OC2=C(c3sc(=S)n(-c4ccccc4)c3CC2)C1c1ccccc1` (stereo not shown) [Compound 23c, Ethyl 7-amino-3,9-diphenyl-2-thioxo-3,4,5,9-tetrahydro-2H-chromeno[6,5-d]thiazole-8-carboxylate] gave an IC50 [1] of 28.4 ± 3.26 µM, an inhibition at 50 µM [1] of 64.3 ± 5.53% and an inhibition at 50 µM [2] of 70.4 ± 5.63%. The IC50 [3] was 70.3 ± 3.8 µM and the inhibition at 50 µM [3] was 59.3 ± 4.68%.
`N#CC1=C(N)OC2=C(C=C(c3c(N)nn(-c4ccccc4)c3N)CC2)C1c1ccccc1Cl` (stereo not shown) [Compound 9b, 2-Amino-4-(2-chlorophenyl)-6-(3,5-diamino-1-phenyl-1H-pyrazol-4-yl)-7,8-dihydro-4H-chromene-3-carbonitrile] gave an IC50 [1] of 0.36 ± 0.2 µM, an inhibition at 50 µM [1] of 93.3 ± 4.17% and an inhibition at 50 µM [2] of 96.1 ± 2.48%. The “% of inhibition at 50 μM, hRNMT” value [3] was “high inhibitions”, the IC50 [3] was 1.91 ± 1.32 µM and the inhibition at 50 µM [3] was 90.3 ± 5.2%.
`N#CC1=C(N)OC2=C(CC(=O)CC2)C1c1ccccc1` (stereo not shown) [Compound 4a, 2-Amino-6-oxo-4-phenyl-5,6,7,8-tetrahydro-4H-chromene-3-carbonitrile] gave an IC50 [1] of 0.63 ± 0.32 µM, an inhibition at 50 µM [1] of 93.4 ± 3.68% and an inhibition at 50 µM [2] of 89.3 ± 7.89%. For the same compound, the “% of inhibition at 50 μM, hRNMT” value [3] was “high inhibitions”, the IC50 [3] was under 0.05 µM and the inhibition at 50 µM [3] was 92.3 ± 5.41%.
`CCOC(=O)CSC(Nc1ccccc1)=C1C(=O)CCC2=C1C(c1ccccc1Cl)C(C#N)=C(N)O2` (stereo not shown) [Compound 16, Ethyl 2-(((2-amino-4-(2-chlorophenyl)-3-cyano-6-oxo-7,8-dihydro-4H-chromen-5(6H)-ylidene)(phenylamino)methyl)thio)acetate] showed an IC50 [1] of 0.53 ± 0.18 µM, an inhibition at 50 µM [1] of 89.2 ± 6.58% and an inhibition at 50 µM [2] of 84.3 ± 6.29%. The “% of inhibition at 50 μM, hRNMT” value [3] was “high inhibitions”, the IC50 [3] was 1.29 ± 0.98 µM and the inhibition at 50 µM [3] was 90.3 ± 4.66%.
In the case of `CCOC(=O)C1=C(N)OC2=C(c3sc(=S)n(-c4ccccc4)c3CC2)C1c1ccc(Cl)cc1` (stereo not shown) [Compound 23d, Ethyl 7-amino-9-(4-chlorophenyl)-3-phenyl-2-thioxo-3,4,5,9-tetrahydro-2H-chromeno[6,5-d]thiazole-8-carboxylate], the IC50 [1] is reported as 0.49 ± 0.13 µM, the inhibition at 50 µM [1] is reported as 57.7 ± 4.26% and the inhibition at 50 µM [2] is reported as 72.3 ± 5.58%. For the same compound, the IC50 [3] was under 0.05 µM and the inhibition at 50 µM [3] was 68.6 ± 6.42%.
With `CCOC(=O)c1c(N)sc2c1CCC1=C2C(c2ccccc2Cl)C(C#N)=C(N)O1` (stereo not shown) [Compound 6e, Ethyl 2,7-diamino-9-(2-chlorophenyl)-8-cyano-5,9-dihydro-4H-thieno[2,3-f]chromene-3-carboxylate] the IC50 [1] was 0.39 ± 0.25 µM, the inhibition at 50 µM [1] was 89.2 ± 8.27% and the inhibition at 50 µM [2] was 92.5 ± 6.9%. The “% of inhibition at 50 μM, hRNMT” value [3] was “high inhibitions”, the IC50 [3] was 0.29 ± 0.08 µM and the inhibition at 50 µM [3] was 80.2 ± 6.28%.
In the case of `CCOC(=O)c1c(N)sc2c1CCC1=C2C(c2ccccc2)C(C#N)=C(N)O1` (stereo not shown) [Compound 6d, Ethyl 2,7-diamino-8-cyano-9-phenyl-5,9-dihydro-4H-thieno[2,3-f]chromene-3-carboxylate], the IC50 [1] is reported as 26.7 ± 5.73 µM, the inhibition at 50 µM [1] is reported as 42.6 ± 4.65% and the inhibition at 50 µM [2] is reported as 36.3 ± 5.22%. It also gave an IC50 [3] of 10.5 ± 2.69 µM and an inhibition at 50 µM [3] of 40.3 ± 6.27%.
Compound `N#CC1=C(N)OC2=C(c3sc(=S)n(-c4ccccc4)c3CC2)C1c1ccccc1` (stereo not shown) [Compound 23a, 7-Amino-3,9-diphenyl-2-thioxo-3,4,5,9-tetrahydro-2H-chromeno[6,5-d]thiazole-8-carbonitrile] has an IC50 [1] of 32.4 ± 4.58 µM, an inhibition at 50 µM [1] of 56.6 ± 6.72% and an inhibition at 50 µM [2] of 45.8 ± 6.38%. The IC50 [3] was 24.7 ± 5.47 µM and the inhibition at 50 µM [3] was 42.7 ± 5.88%.
In the case of `N#Cc1c(N)sc2c1CCc1c-2sc(=S)n1-c1ccccc1` [Compound 21a, 7-Amino-3-phenyl-2-thioxo-2,3,4,5-tetrahydrothieno[2',3':3,4]benzo[1,2-d]thiazole-6-carbonitrile], the IC50 [1] is reported as 18.5 ± 2.68 µM, the inhibition at 50 µM [1] is reported as 49.2 ± 6.73% and the inhibition at 50 µM [2] is reported as 57.8 ± 5.82%. It also gave an IC50 [3] of 56.3 ± 4.62 µM and an inhibition at 50 µM [3] of 60.3 ± 5.37%.
Work on `CCOC(=O)c1c(N)sc2c1CCc1c-2sc(=S)n1-c1ccccc1` [Compound 21b, Ethyl 7-amino-3-phenyl-2-thioxo-2,3,4,5-tetrahydrothieno[2',3':3,4]benzo[1,2-d]thiazole-6-carboxylate] yielded an IC50 [1] of 1.08 ± 0.58 µM, an inhibition at 50 µM [1] of 87.2 ± 5.36% and an inhibition at 50 µM [2] of 90.4 ± 6.53%. The “% of inhibition at 50 μM, hRNMT” value [3] was “high inhibitions”, the IC50 [3] was 0.94 ± 0.36 µM and the inhibition at 50 µM [3] was 88.2 ± 5.38%.
Work on `CCOC1C(C#N)=C(O)OC2=C1c1sc(=S)n(-c3ccccc3)c1CC2` (stereo not shown) [Compound 20b, 9-Ethoxy-7-hydroxy-3-phenyl-2-thioxo-3,4,5,9-tetrahydro–2H-chromeno[6,5-d]thiazole-8-carbonitrile] yielded an IC50 [1] of 32.6 ± 3.8 µM, an inhibition at 50 µM [1] of 36.1 ± 6.83% and an inhibition at 50 µM [2] of 41.4 ± 4.93%. The IC50 [3] was 18.8 ± 5.36 µM and the inhibition at 50 µM [3] was 39.5 ± 6.83%.
Work on `N#CC1=C(N)OC2=C(C=C(c3c(N)n[nH]c3N)CC2)C1c1ccccc1Cl` (stereo not shown) [Compound 9a, 2-Amino-4-(2-chlorophenyl)-6-(3,5-diamino-1H-pyrazol-4-yl)-7,8-dihydro-4H-chromene-3-carbonitrile] yielded an IC50 [1] of 0.42 ± 0.19 µM, an inhibition at 50 µM [1] of 96.3 ± 2.4% and an inhibition at 50 µM [2] of 95.5 ± 3.23%. The “% of inhibition at 50 μM, hRNMT” value [3] was “high inhibitions”, the IC50 [3] was under 0.05 µM and the inhibition at 50 µM [3] was 93.6 ± 3.71%.
Compound `COc1ccc(C2C(C#N)=C(N)OC3=C2CC(=O)CC3)cc1` (stereo not shown) [Compound 4c, 2-Amino-4-(4-methoxyphenyl)-6-oxo-5,6,7,8-tetrahydro-4H-chromene-3-carbonitrile] has an IC50 [1] of 16.4 ± 2.7 µM, an inhibition at 50 µM [1] of 34.6 ± 4.62% and an inhibition at 50 µM [2] of 49.4 ± 6.92%. For the same compound, the IC50 [3] was 32.6 ± 1.7 µM and the inhibition at 50 µM [3] was 51.7 ± 4.62%.
`N#CC1=C(N)OC2=C(CC(=O)CC2)C1c1ccccc1Cl` (stereo not shown) [Compound 4b, 2-Amino-4-(2-chlorophenyl)-6-oxo-5,6,7,8-tetrahydro-4H-chromene-3-carbonitrile] was tested, and the IC50 [1] was 0.62 ± 0.32 µM, the inhibition at 50 µM [1] was 87.5 ± 8.21% and the inhibition at 50 µM [2] was 98.3 ± 5.42%. For the same compound, the “% of inhibition at 50 μM, hRNMT” value [3] was “high inhibitions”, the IC50 [3] was 0.41 ± 0.26 µM and the inhibition at 50 µM [3] was 94.6 ± 7.68%.
